Measurements reported in US20050112573A1, “Method of detecting toxic substance” (priority 2001, published 2005).

Test system: yeast genes (level of expressed mRNA)
Experiment: DNA chip analysis of expressed mRNA of yeast genes after 2 h culture with a toxic chemical substance
Assay type: cell-based, Saccharomyces cerevisiae S288C
Experimental: Yeast (Saccharomyces cerevtisiae S288C (α SUC2mal mel gap2 CUP1)) were cultured at 25° C. on YPD medium (yeast extract 1%, polypepton 2%, glucose 2%). One of toxic chemical substances was added to the cell at logarithmic growth phase, and the cell was further cultured for two hours. Cell was cultured without any chemical substance in the same condition, and was used as control. Concentrations of the chemical substances were defined to inhibit the growth of the yeast but not lead to death.
After the completion of cultivation, the culture was centrifuged to collect the cells. To the cells, sodium acetate buffer (50 mM sodium acetate, 10 mM EDTA, 1% SDS) was added, and the mixture was shaken at 65° C. for five minutes, followed by returning to room temperature, and obtaining the supernatant, which procedure was repeated two times. To the supernatant, ½ amount of a solution of phenol/chloroform was added, and the mixture was centrifuged to give a supernatant, which was added with an equal amount of chloroform, and the mixture was centrifuged to give a supernatant. To the supernatant, an equal amount of isopropanol containing 0.3 M sodium acetate was added, and the mixture was allowed to stand at room temperature for 30 minutes, after which the mixture was centrifuged to give a sediment of the whole RNAs. Seventy % ethanol was added to the sediment, and the mixture was again centrifuged to give a sediment, which was then dried and dissolved in water. mRNA was isolated from the whole RNAs as followings. In view of the fact that a poly A chain is attached to the 3′ terminus of mRNA, a polynucleotide having a poly T structure which was immobilized on the surface of latex beads was used to trap the mRNA, and then the mRNA was washed and eluted with spine column (Oligotex-dT30<Super>mRNA Purification Kit, Takara). Reverse transcription of the mRNA was conducted with a reverse transcriptase (Super Script II Reverse Transcriptase; catalogue No. 18064-014, GibcoBRL) using fluorescence-labeled nucleotides to give cDNAs that were introduced with Cy3-dUTP or Cy5-dUTP during the reverse transcription.
The labeled cDNAs were dissolved in TE buffer (10 mM Tris-HCl/1 mM EDTA, pH8.0), and the solution was dropped on the DNA chip containing the whole genes of yeast (DNA Chip Research Inc. Japan) so that the cDNAs were hybridized on the DNA chip at 65° C. for over 12 hours. The fluoresces intensity of the DNA chip was read with a scanner, and the ratio relative to the fluorescence intensity resulting from the absence of chemical substance was estimated as the following, which is shown in Tables 1 to 9: [formula]
In the Tables, “Intensity” indicated in the rightmost column is a value of the level of expressed mRNA of each gene in control cells as divided by the average level of the expressions of the whole genes.

With Na2As [(1)] the “The level of expressed mRNA in the presence of chemical substance/” value (yeast gene YFL010C, ratio to control without chemical substance, 2 h culture) was 1.0, the “The level of expressed mRNA in the presence of chemical substance/” value (yeast gene YFL024C, ratio to control without chemical substance, 2 h culture) was 1.0 and the “The level of expressed mRNA in the presence of chemical substance/The level of expressed mRNA in the absence of chemical substance” value (yeast gene YFL028C) was 1.2. The “The level of expressed mRNA in the presence of chemical substance/” value (yeast gene YFL032W, ratio to control without chemical substance, 2 h culture) was 0.4, the “The level of expressed mRNA in the presence of chemical substance/The level of expressed mRNA in the absence of chemical substance” value (yeast gene YFL043C) was 1.0 and the “The level of expressed mRNA in the presence of chemical substance/in the absence of chemical substance” value (yeast gene YGL035C) was 0.7. The “The level of expressed mRNA in the presence of chemical substance/” value (yeast gene YGL037C, ratio to control without chemical substance, 2 h culture) was 1.5, the “The level of expressed mRNA in the presence of chemical substance/” value (yeast gene YGL047W, ratio to control without chemical substance, 2 h culture) was 1.0 and the “The level of expressed mRNA in the presence of chemical substance/” value (yeast gene YGL053W, ratio to control without chemical substance, 2 h culture) was 1.5. The “The level of expressed mRNA in the presence of chemical substance/” value (yeast gene YGL121C, ratio to control without chemical substance, 2 h culture) was 2.6, the “The level of expressed mRNA in the presence of chemical substance/The level of expressed mRNA in the absence of chemical substance” value (yeast gene YGL158W) was 1.1 and the “The level of expressed mRNA in the presence of chemical substance/” value (yeast gene YGL199C, ratio to control without chemical substance, 2 h culture) was 1.1. For the same substance, the “The level of expressed mRNA in the presence of chemical substance/The level of expressed mRNA in the absence of chemical substance” value (yeast gene YGL229C) was 0.6, the “The level of expressed mRNA in the presence of chemical substance/” value (yeast gene YGR101W, ratio to control without chemical substance, 2 h culture) was 1.0 and the “The level of expressed mRNA in the presence of chemical substance/” value (yeast gene YGR110W, ratio to control without chemical substance, 2 h culture) was 1.6. For the same substance, the “The level of expressed mRNA in the presence of chemical substance/” value (yeast gene YGR130C, ratio to control without chemical substance, 2 h culture) was 0.9, the “The level of expressed mRNA in the presence of chemical substance/The level of expressed mRNA in the absence of chemical substance” value (yeast gene YGR136W) was 0.9 and the “The level of expressed mRNA in the presence of chemical substance/” value (yeast gene YGR154C, ratio to control without chemical substance, 2 h culture) was 1.8. The “The level of expressed mRNA in the presence of chemical substance/The level of expressed mRNA in the absence of chemical substance” value (yeast gene YGR189C) was 1.1, the “The level of expressed mRNA in the presence of chemical substance/The level of expressed mRNA in the absence of chemical substance” value (yeast gene YGR213C) was 5.4 and the “The level of expressed mRNA in the presence of chemical substance/” value (yeast gene YGR221C, ratio to control without chemical substance, 2 h culture) was 0.9. For the same substance, the “The level of expressed mRNA in the presence of chemical substance/The level of expressed mRNA in the absence of chemical substance” value (yeast gene YGR257C) was 0.7, the “The level of expressed mRNA in the presence of chemical substance/in the absence of chemical substance” value (yeast gene YGR287C) was 1.3 and the “The level of expressed mRNA in the presence of chemical substance/The level of expressed mRNA in the absence of chemical substance” value (yeast gene YHR004C) was 0.9. For the same substance, the “The level of expressed mRNA in the presence of chemical substance/The level of expressed mRNA in the absence of chemical substance” value (yeast gene YHR071W) was 1.5, the “The level of expressed mRNA in the presence of chemical substance/” value (yeast gene YHR138C, ratio to control without chemical substance, 2 h culture) was 2.8 and the “The level of expressed mRNA in the presence of chemical substance/The level of expressed mRNA in the absence of chemical substance” value (yeast gene YHR139C) was 3.0. For the same substance, the “The level of expressed mRNA in the presence of chemical substance/The level of expressed mRNA in the absence of chemical substance” value (yeast gene YHR142W) was 1.5, the “The level of expressed mRNA in the presence of chemical substance/” value (yeast gene YHR199C, ratio to control without chemical substance, 2 h culture) was 1.9 and the “The level of expressed mRNA in the presence of chemical substance/” value (yeast gene YIL023C, ratio to control without chemical) was 1.1. For the same substance, the “The level of expressed mRNA in the presence of chemical substance/” value (yeast gene YIL041W, ratio to control without chemical substance, 2 h culture) was 1.0, the “The level of expressed mRNA in the presence of chemical substance/” value (yeast gene YIL087C, ratio to control without chemical substance, 2 h culture) was 1.3 and the “The level of expressed mRNA in the presence of chemical substance/The level of expressed mRNA in the absence of chemical substance” value (yeast gene YIL123W) was 1.0. The “The level of expressed mRNA in the presence of chemical substance/The level of expressed mRNA in the absence of chemical substance” value (yeast gene YIL140W) was 0.7, the “The level of expressed mRNA in the presence of chemical substance/” value (yeast gene YJL057C, ratio to control without chemical substance, 2 h culture) was 1.5 and the “The level of expressed mRNA in the presence of chemical substance/” value (yeast gene YJL066C, ratio to control without chemical substance, 2 h culture) was 0.9. The “The level of expressed mRNA in the presence of chemical substance/in the absence of chemical substance” value (yeast gene YJL070C) was 1.3, the “The level of expressed mRNA in the presence of chemical substance/The level of expressed mRNA in the absence of chemical substance” value (yeast gene YJL073W) was 0.8 and the “The level of expressed mRNA in the presence of chemical substance/” value (yeast gene YJL082W, ratio to control without chemical substance, 2 h culture) was 1.4. For the same substance, the “The level of expressed mRNA in the presence of chemical substance/The level of expressed mRNA in the absence of chemical substance” value (yeast gene YJL089W) was 1.1, the “The level of expressed mRNA in the presence of chemical substance/The level of expressed mRNA in the absence of chemical substance” value (yeast gene YJL116C) was 0.9 and the “The level of expressed mRNA in the presence of chemical substance/” value (yeast gene YJL151C, ratio to control without chemical substance, 2 h culture) was 1.0. For the same substance, the “The level of expressed mRNA in the presence of chemical substance/” value (yeast gene YJL152W, ratio to control without chemical substance, 2 h culture) was 0.9, the “The level of expressed mRNA in the presence of chemical substance/” value (yeast gene YJL161W, ratio to control without chemical substance, 2 h culture) was 1.7 and the “The level of expressed mRNA in the presence of chemical substance/in the absence of chemical substance” value (yeast gene YJL167W) was 0.9. For the same substance, the “The level of expressed mRNA in the presence of chemical substance/” value (yeast gene YJL171C, ratio to control without chemical substance, 2 h culture) was 2.3, the “The level of expressed mRNA in the presence of chemical substance/in the absence of chemical substance” value (yeast gene YJL216C) was 0.8 and the “The level of expressed mRNA in the presence of chemical substance/The level of expressed mRNA in the absence of chemical substance” value (yeast gene YJR004C) was 0.2. For the same substance, the “The level of expressed mRNA in the presence of chemical substance/” value (yeast gene YJR008W, ratio to control without chemical substance, 2 h culture) was 1.6, the “The level of expressed mRNA in the presence of chemical substance/” value (yeast gene YJR054W, ratio to control without chemical) was 0.8 and the “The level of expressed mRNA in the presence of chemical substance/The level of expressed mRNA in the absence of chemical substance” value (yeast gene YJR086W) was 1.2. For the same substance, the “The level of expressed mRNA in the presence of chemical substance/The level of expressed mRNA in the absence of chemical substance” value (yeast gene YKL008C) was 1.2, the “The level of expressed mRNA in the presence of chemical substance/The level of expressed mRNA in the absence of chemical substance” value (yeast gene YKL013C) was 1.4 and the “The level of expressed mRNA in the presence of chemical substance/The level of expressed mRNA in the absence of chemical substance” value (yeast gene YKL039W) was 0.8. For the same substance, the “The level of expressed mRNA in the presence of chemical substance/The level of expressed mRNA in the absence of chemical substance” value (yeast gene YKL041W) was 1.2 and the “The level of expressed mRNA in the presence of chemical substance/” value (yeast gene YKL071W, ratio to control without chemical substance, 2 h culture) was 8.3.
